In patent US10703756B2, “Pyrrolo[2,3-D]pyrimidinyl, pyrrolo[2,3-B]pyrazinyl, pyrrolo[2,3-B]pyridinyl acrylamides and epoxides thereof” (Pfizer Inc., priority 2015, dated 2020):

Legend:
[1] = tested on: IL-15 induced P-STAT5 in human PBMC; assay: PBMC IL-15 Induced P-STAT5; format: cell-based; settings: human PBMC, IL-15 final 41 ng/mL; read-out: PBMC IL15_pSTAT5_IC50
In short: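 Thawed human PBMC, rested in human plasma, were preincubated 15 min at 37 °C with compound (0.2% DMSO), then stimulated 15 min with IL-15 at 41 ng/mL final. After paraformaldehyde fixation and methanol permeabilisation, Alexa Fluor 647 anti-STAT5 staining overnight at 4 °C was analysed by flow cytometry on total lymphocytes.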

JAK3 enzyme [2] = target: T1, JAK3 enzyme (Homo sapiens, UniProt P52333); assay: JAK Caliper Enzyme Assay at 4 μM ATP; format: biochemical
T1 sequence (P52333 1-1124): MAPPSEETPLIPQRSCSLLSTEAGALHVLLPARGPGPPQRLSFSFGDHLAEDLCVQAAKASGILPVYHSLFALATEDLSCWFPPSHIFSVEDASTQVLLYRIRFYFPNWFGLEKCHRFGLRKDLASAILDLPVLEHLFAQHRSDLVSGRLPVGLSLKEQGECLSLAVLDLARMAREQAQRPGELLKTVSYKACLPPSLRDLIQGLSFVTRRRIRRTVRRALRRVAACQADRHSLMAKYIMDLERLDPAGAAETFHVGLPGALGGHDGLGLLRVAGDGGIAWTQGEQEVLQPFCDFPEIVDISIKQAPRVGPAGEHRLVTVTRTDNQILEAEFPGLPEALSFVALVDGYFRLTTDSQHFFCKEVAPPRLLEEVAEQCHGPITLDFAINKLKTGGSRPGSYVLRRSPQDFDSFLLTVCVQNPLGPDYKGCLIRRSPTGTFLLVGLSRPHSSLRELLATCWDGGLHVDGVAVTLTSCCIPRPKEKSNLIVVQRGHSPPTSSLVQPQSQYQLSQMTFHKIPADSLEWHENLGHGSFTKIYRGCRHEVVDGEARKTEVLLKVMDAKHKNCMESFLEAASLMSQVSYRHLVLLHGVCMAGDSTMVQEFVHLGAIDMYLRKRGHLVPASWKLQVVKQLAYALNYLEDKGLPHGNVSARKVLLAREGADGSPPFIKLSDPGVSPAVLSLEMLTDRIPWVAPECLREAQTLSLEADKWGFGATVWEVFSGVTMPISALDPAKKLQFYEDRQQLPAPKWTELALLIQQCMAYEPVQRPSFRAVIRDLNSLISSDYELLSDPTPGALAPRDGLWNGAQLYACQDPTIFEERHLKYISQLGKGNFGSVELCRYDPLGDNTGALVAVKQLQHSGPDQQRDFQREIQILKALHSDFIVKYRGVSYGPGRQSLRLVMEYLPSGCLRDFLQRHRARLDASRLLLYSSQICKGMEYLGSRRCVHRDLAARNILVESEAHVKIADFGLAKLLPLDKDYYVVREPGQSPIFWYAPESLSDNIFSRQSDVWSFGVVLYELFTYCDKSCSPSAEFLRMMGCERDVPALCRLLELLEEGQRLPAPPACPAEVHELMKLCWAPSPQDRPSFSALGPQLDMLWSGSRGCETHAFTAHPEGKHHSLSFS
In short: (§1)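 First, compound stocks in DMSO were serially diluted half-log over 11 points, starting at 600 μM. Next, reactions ran with batch-optimized enzyme and timing targeting 20%-30% phosphorylation. Finally, wells were sampled and product separated from substrate peptide electrophoretically.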

[3] = tested on: IL-15 induced STAT5 phosphorylation in human whole blood lymphocytes; assay: HWB IL-15 Induced STAT5 Phosphorylation Assay; format: cell-based; settings: Lymphocyte, IL-15 final 50 ng/ml, read-out: HWB_IL15 pSTAT5 IC50
Protocol: HWB IL-15 Induced STAT5 Phosphorylation Assay
After serial dilution of the test compounds 1:2 in DMSO at desired concentration (500× of final), the compounds were further diluted in PBS (by adding 4 μL compound/DMSO in 96 μL PBS, [DMSO]=4%, 20× final). To 96-well polypropylene plates were added 90 μl HWB (heparin treated Human Whole Blood)/well, followed by 5 μl/well 4% DMSO in D-PBS or various concentrations of 20× inhibitor in 4% DMSO in D-PBS (w/o Ca^+2 or Mg^+2) to give 1× in 0.2% DMSO. After mixing and incubating for 45 minutes at 37° C., 5 μl D-PBS (unstimulated control) or 20× stocks of 5 μl human IL-15 (final concentration is 50 ng/ml) were added, and mixed three times. After incubating 15 minutes at 37° C., 1× Lyse/Fix Buffer (BD Phosflow 5× Lyse/Fix Buffer) was added to all wells at 1000 μl/well, then incubated for 20 minutes at 37° C. and spun 5 mins at 1200 rpm. After washing in 1000 μl FACS buffer 1× and spinning for 5 mins at 1200 rpm, 400 μl ice cold Perm Buffer III were added to each well. After mixing gently (1-2×) and incubating on ice for 30 minutes, spinning for 5 mins at 1200 rpm without interruption, and washing 1× in cold […] FACS buffer (D-PBS containing 0.1% BSA and 0.1% sodium azide) 250 μl/well of the desired AlexaFluor647-conjugated anti-phospho STATS antibody at 1:125 dilution in FACS buffer was added. Following incubating at 4° C. over night, all the samples were transferred to 96-well polypropylene U-bottom plate, and checked by flow cytometry gated on total lymphocytes.

JAK3 enzyme [4] = target: T1, JAK3 enzyme; assay: JAK Caliper Enzyme Assay at 1 mM ATP; format: biochemical
In short: as §1

| IC50 (JAK3 enzyme [2]) [nM] | IC50 [3] [nM] | IC50 (JAK3 enzyme [4]) [nM] | SMILES | IC50 [1] [nM] |
| --- | --- | --- | --- | --- |
| 1.23 | 2460 | 70 | C=CC(=O)N1CC[C@@H](Nc2cnc3[nH]cc(C(=O)NCCC(F)(F)F)c3n2)[C@@H](OC)C1 [Example 278, 2-{[(3S,4R)-1-acryloyl-3-methoxypiperidin-4-yl]amino}-N-(3,3,3-trifluoropropyl)-5H-pyrrolo[2,3-b]pyrazine-7-carboxamide] | 272 |
| 0.372 | 542 | 6 | C=CC(=O)N1CCC(Nc2cnc3[nH]cc(C(=O)NCc4scnc4C(F)(F)F)c3n2)CC1 [Example 185, 2-[(1-acryloylpiperidin-4-yl)amino]-N-{[4-(trifluoromethyl)-1,3-thiazol-5-yl]methyl}-5H-pyrrolo[2,3-b]pyrazine-7-carboxamide] | 73 |
| 0.348 | 211 | 26 | C=CC(=O)N1CCN(c2cnc3[nH]cc(C(=O)N[C@H](CC)CC#N)c3n2)CC1 [Example 315, 2-(4-acryloylpiperazin-1-yl)-N-[(2R)-1-cyanobutan-2-yl]-5H-pyrrolo[2,3-b]pyrazine-7-carboxamide] | 74.9 |
| 1.21 | 913 | 57 | C=CC(=O)N1CC[C@@H](Nc2cnc3[nH]cc(C(=O)NC4CCCC4)c3n2)[C@@H](OC)C1 (racemic) [Example 299, Racemic-2-{[(3S,4R)-1-acryloyl-3-methoxypiperidin-4-yl]amino}-N-cyclopentyl-5H-pyrrolo[2,3-b]pyrazine-7-carboxamide] | 305 |
| 0.587 | 6290 | 60 | C=CC(=O)N1CCN(c2cnc3[nH]cc(C(=O)NCCC(F)(F)F)c3n2)C[C@@H]1CC(C)C [Example 329, 2-[(3S)-4-acryloyl-3-(2-methylpropyl)piperazin-1-yl]-N-(3,3,3-trifluoropropyl)-5H-pyrrolo[2,3-b]pyrazine-7-carboxamide] | 247 |
| 0.38 | 1020 | 53 | C=CC(=O)N1CCC(Oc2cnc3[nH]cc(C(=O)NCC(C)C)c3n2)CC1 [Example 222, 2-[(1-acryloylpiperidin-4-yl)oxy]-N-(2-methylpropyl)-5H-pyrrolo[2,3-b]pyrazine-7-carboxamide] | 280 |
| 0.43 | 718 | 45 | C=CC(=O)N1CCN(c2cnc3[nH]cc(C(=O)NC4CCC4)c3n2)CC1 [Example 297, 2-(4-acryloylpiperazin-1-yl)-N-cyclobutyl-5H-pyrrolo[2,3-b]pyrazine-7-carboxamide] | 150 |
